From US20260068885A1, “HERBICIDAL COMPOSITIONS” (BAYER AKTIENGESELLSCHAFT, priority 2022, published 2026)

Assays:
Experiment in all cases: Post-emergence herbicidal action against harmful plants (greenhouse)
Type in all cases: in vivo
[1] = test system: Polygonum convolvulus (POLCO)
Cyperus iria (CYPIR) = test system: Cyperus iria (CYPIR)
Procedure: (§1) Seeds of monocotyledonous and dicotyledonous weed and crop plants are laid out in sandy loam soil in wood-fibre pots, covered with soil and cultivated in a greenhouse under good growth conditions. 2 to 3 weeks after sowing, the test plants are treated at the one-leaf stage. The compounds of the invention, formulated in the form of wettable powders (WP) or as emulsion concentrates (EC), are then sprayed onto the green parts of the plants in the form of an aqueous suspension or emulsion at a water application rate equivalent to 600 to 800 l/ha, with addition of 0.2% wetting agent. After the test plants have been […], the action of the preparations is assessed visually in comparison to untreated controls (herbicidal action in percent (%): 100% activity=the plants have died, 0% activity=like control plants). […] The tables below illustrate, in an illustrative manner, the post-emergence herbicidal action of the compounds of the invention, the herbicidal activity being stated in percent.
(§2) In the tables that follow, the abbreviations mean the following: • E: means the synergism value to be expected according to the Colby formula. • Δ SYN: means the difference between the actual and expected synergism value. • DAT: means days after treatment.

[2] = test system: Abutilon theophrasti (ABUTH); conditions: ABUTH 21 DAT; 20 g a.i./ha
Procedure: as §1, §2

Setaria viridis (SETVI) = test system: Setaria viridis (SETVI)
Procedure: as §1, §2

[3] = test system: Erigeron bonariensis (ERIBO); conditions: ERIBO 21 DAT
Procedure: as §1, §2

[4] = test system: Sorghum halepense (SORHA)
Procedure: (§3) Seeds of monocotyledonous and dicotyledonous weed and crop plants are laid out in sandy loam soil in wood-fibre pots, covered with soil and cultivated in a greenhouse under good growth conditions. 2 to 3 weeks after sowing, the test plants are treated at the one-leaf stage. The compounds of the invention, formulated in the form of wettable powders (WP) or as emulsion concentrates (EC), are then sprayed onto the green parts of the plants in the form of an aqueous suspension or emulsion at a water application rate equivalent to 600 to 800 l/ha, with addition of 0.2% wetting agent. After the test plants have been left to stand in the greenhouse under optimal growth conditions for about 3 weeks, the action of the preparations is assessed visually in comparison to untreated controls (herbicidal action in percent (%): 100% activity=the plants have died, 0% activity=like control plants). […] The tables below illustrate, in an illustrative manner, the post-emergence herbicidal action of the compounds of the invention, the herbicidal activity being stated in percent.
as §2

Emex australis (EMEAU) = conditions: EMEAU 21 DAT; 20 g a.i./ha
Procedure: as §3, §2

[5] = test system: Brachiaria platyphylla (BRAPP)
Procedure: as §3, §2

[6] = test system: Xanthium strumarium (XANST); conditions: application rate 20 g a.i./ha
Procedure: as §3, §2

[7] = test system: Xanthium strumarium (XANST); conditions: application rate 20 g a.i./ha; 10 DAT
[8] = test system: Pharbitis purpurea (PHBPU); conditions: 5 g a.i./ha

CCn1ncc(C(=O)c2ccc(S(C)(=O)=O)c(COCC(F)(F)F)c2Cl)c1OC(=O)c1cn(C)nc1C [fenpyrazone]
Herbicidal efficacy ([1]; POLCO 10 DAT, 5 g a.i./ha): 0% | Herbicidal efficacy ([1]; POLCO 21 DAT, 5 g a.i./ha): 0% | Herbicidal efficacy ([1]; POLCO 21 DAT, 20 g a.i./ha): 10% | Herbicidal efficacy (Cyperus iria (CYPIR); CYPIR 10 DAT, 5 g a.i./ha): 30% | Herbicidal efficacy (Cyperus iria (CYPIR); CYPIR 10 DAT, 20 g a.i./ha): 20% | Herbicidal efficacy (Cyperus iria (CYPIR); CYPIR 21 DAT, 5 g a.i./ha): 30% | Herbicidal efficacy (Cyperus iria (CYPIR); CYPIR 21 DAT, 20 g a.i./ha): 10% | Herbicidal efficacy [2]: 30% | Herbicidal efficacy (Setaria viridis (SETVI); SETVI 10 DAT, 5 g a.i./ha): 30% | Herbicidal efficacy (Setaria viridis (SETVI); SETVI 10 DAT, 20 g a.i./ha): 50% | Herbicidal efficacy (Setaria viridis (SETVI); SETVI 21 DAT, 5 g a.i./ha): 20% | Herbicidal efficacy (Setaria viridis (SETVI); SETVI 21 DAT, 20 g a.i./ha): 20% | Herbicidal efficacy ([3]; 5 g a.i./ha): 80% | Herbicidal efficacy ([3]; 20 g a.i./ha): 80% | Herbicidal efficacy [%] against SORHA 10 DAT ([4]; application rate 5 g a.i./ha): 20% | Herbicidal efficacy [%] against SORHA 21 DAT ([4]; application rate 5 g a.i./ha): 10% | Herbicidal efficacy [%] against SORHA 10 DAT ([4]; application rate 20 g a.i./ha): 30% | Herbicidal efficacy [%] against SORHA 21 DAT ([4]; application rate 20 g a.i./ha): 20% | Herbicidal efficacy (Emex australis (EMEAU)): 0% | Herbicidal efficacy ([5]; BRAPP 10 DAT, 5 g a.i./ha): 30% | Herbicidal efficacy ([5]; BRAPP 10 DAT, 20 g a.i./ha): 75% | Herbicidal efficacy ([5]; BRAPP 21 DAT, 5 g a.i./ha): 10% | Herbicidal efficacy ([5]; BRAPP 21 DAT, 20 g a.i./ha): 20% | Herbicidal efficacy [%] against XANST 21 DAT [6]: 70% | Herbicidal efficacy [%] against XANST 10 DAT [7]: 88% | Herbicidal efficacy ([8]; PHBPU 10 DAT): 0% | Herbicidal efficacy ([8]; PHBPU 21 DAT): 0%
